Test results: patent publication US6156724A, “Uses of didemnins as immunomodulating agents” (priority 1998, dated 2000)
Where two headings read alike, the source gives them in different places. Numbered stars: 1 amine (or outer) side, 2 acyl side, 3 side chain; on linkers, the order of the positions; unused ones are H or OH. Bridge positions count the residues as written; N and C are the ends. Square brackets hold non-standard residues; d marks the D form. Peptide text beside a SMILES is read from it. * marks the point of attachment. X1 = CC[C@H](C)[C@@H](N[*:1])[C@@H](O)CC(=O)O[C@H](C(=O)[C@H](C)C(=O)[*:2])C(C)C; NMeY = CN[C@@H](Cc1ccc(O)cc1)C(=O)O; Stearoyl = CCCCCCCCCCCCCCCCCC(=O)*; dNMeL = CN[C@H](CC(C)C)C(=O)O; pGlu = O=C1CC[C@@H](C(=O)O)N1; Lac = C[C@H](O)C(=O)O

Tests used:
[1] = system: Balb/c splenocytes (resting lymphocytes); experiment: Lymphocyte viability (LcV) assay; format: cell-based, murine; conditions: unstimulated Balb/c splenocytes, MTT
Outline: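 Resting Balb/c splenocytes incubated with compounds under MLR-equivalent conditions, then pulsed overnight with MTT; formazan dissolved in isopropanol and absorbance read at 570 nm. Viability expressed as percent of untreated Balb/c control metabolic activity, with LC50 interpolated.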

[2] = system: CB6F1 mice grafted with Balb/c splenocytes; experiment: Graft vs host reaction (GVHR) splenomegaly assay; format: in vivo; conditions: for alive day 8 / body weight change day 5 / body weight day 5 (g ± SD) / index (spleen wt. treated/spleen wt. syngenetic injection) / mean group spleen wt. normalized to day 8 body weight: QD 1-7, ip
Method: Three representative compounds didemnin M (38), O-pGlu-DB (37), and didemnin B (1)-showing high (37,38) or moderate (1) in vivo immunosuppressive activity were subsequently evaluated in a multidose assay (0.16,0.016, and 0.0016 mg/kg per injection; qd 1-7) for their in vivo immunosuppressive effects on the GVHR splenomegaly assay.
Three didemnins (didemnin B, didemnin M, and pGlu-didemnin B) were evaluated in a modified Simonsen splenomegaly assay. Briefly, an F1 hybrid host animal is grated with immunocompetent spleen cells from the parent strain. The index used to measure the success of the GVHR is splenomegaly (increased spleen weight due to cellular proliferation of grafted lymphocytes). An index>1.3 (graft index) is considered to be a successful graft rejection of the recipient animal. Immunosuppression is considered as a reduction of the graft index.
On day O, CB6F1 female mice, 4 weeks of age, were grated by intraperitoneal (ip) injection of 50×10^5 splenocytes from BALB/c female mice in high-glucose ([…]) Dulbecco's modified Eagles medium. A syngeneic control group (CB6F1 --CB6F1) was similarly prepared and served as the negative control. Grafted mice were divided into treatment groups containing six mice each. Groups were injected ip with test compound (dissolved in vehicle; 1% abs. EtOH in sterile phosphate-buffered saline) at one of three dose levels (0.16, 0.016, and 0.0016 mg/kg per injection) in a multidose assay, cyclophosphamide (200 mg/kg per injection) or vehicle on days 1-7 (qd 1-7). On day 8 all groups were sacrificed, spleens were excised, and a graft index was calculated for each group by the following formula: [formula]

[3] = system: concanavalin A-induced lymphoblasts (Con A splenocytes); experiment: Lymphoblast viability (LbV) assay; conditions: Con A-stimulated splenocytes (lymphoblasts), MTT
[4] = system: murine splenocytes (Balb/c and C57B1/6); experiment: Two-way mixed lymphocyte reaction (MLR) assay;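 also: proliferation read as tritiated thymidine incorporation into newly made DNA after an overnight pulse, expressed as percent of control activity, IC50 interpolated per compound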
[5] = system: Rift Valley fever virus; conditions: mouse, in vivo; cited from earlier work
[6] = 160 μg/kg per injection (highest dose)
[7] = Balb/c + C57B1/6 splenocytes, 96 h, [3H]thymidine
[8] = read-out: two-way mixed lymphocyte reaction (MLR) suppression MLR, IC50, Balb/c + C57B1/6 splenocytes, 96 h, [3H]thymidine

| Structure (SMILES) | cytoxicity to lymphocytes LcV, LC50 [1] [nM] | cytoxicity to lymphocytes LcV, LC50 ([1]; highest concentration 10 μg/mL) [µg/mL] | alive day 8 ([2]; 0.0016 mg/Kg/day) [%] | body weight change day 5 ([2]; 0.0016 mg/Kg/day) [g] | body weight day 5 (g ± SD) ([2]; 0.0016 mg/Kg/day) [g] | index (spleen wt. treated/spleen wt. syngenetic injection) ([2]; 0.0016 mg/Kg/day) | mean group spleen wt. normalized to day 8 body weight ([2]; 0.0016 mg/Kg/day) | alive day 8 ([2]; 0.016 mg/Kg/day) [%] | body weight change day 5 ([2]; 0.016 mg/Kg/day) [g] | body weight day 5 (g ± SD) ([2]; 0.016 mg/Kg/day) [g] | index (spleen wt. treated/spleen wt. syngenetic injection) ([2]; 0.016 mg/Kg/day) | mean group spleen wt. normalized to day 8 body weight ([2]; 0.016 mg/Kg/day) | alive day 8 ([2]; 0.16 mg/Kg/day) [%] | body weight change day 5 ([2]; 0.16 mg/Kg/day) [g] | body weight day 5 (g ± SD) ([2]; 0.16 mg/Kg/day) [g] | index (spleen wt. treated/spleen wt. syngenetic injection) ([2]; 0.16 mg/Kg/day) | mean group spleen wt. normalized to day 8 body weight ([2]; 0.16 mg/Kg/day) | cytotoxicity to lymphocytes LbV, LC50 [3] [nM] | two-way mixed lymphocyte reaction (MLR) suppression MLR, IC50 [4, 7] [ng/mL] | IC50 [4, 8] [nM] | other results |
| --- | --- | --- | --- | --- | --- | --- | --- | --- | --- | --- | --- | --- | --- | --- | --- | --- | --- | --- | --- | --- | --- |
| CC[C@H](C)[C@H]1NC(=O)[C@@H](NC(=O)[C@@H](CC(C)C)N(C)C(=O)[C@@H]2CCCN2C(=O)[C@H](C)OC(=O)[C@@H]2CCC(=O)N2)[C@@H](C)OC(=O)[C@H](Cc2ccc(OC)cc2)N(C)C(=O)[C@@H]2CCCN2C(=O)[C@H](CC(C)C)NC(=O)[C@@H](C)C(=O)[C@H](C(C)C)OC(=O)C[C@@H]1O [Compound 37, O-Pyroglutamyldidemnin B] ([pGlu][Lac]P[dNMeL]T[X1]LP[NMeY](Me); ester 5-C) | > 8200 | > 10 | 100 | 0.4 | 17.4 ± 1.7 | 1.63 | 5.2 | 100 | 0.8 | 17.2 ± 1.5 | 1.76 | 5.6 | 100 | -0.6 | 15.2 ± 1.2 | 1.32 | 4.2 | 0.079 | 0.007 | 0.0053 | suppression of allogeneically induced splenomegaly response compared to control ([2]; 160 μg/kg per injection): 54%; toxicity to the animals [2, 6]: neither was toxic; IC50 ([4]; read-out: MLR IC50): 0.0053 nM |
| CC[C@H](C)[C@H]1NC(=O)[C@@H](NC(=O)[C@@H](CC(C)C)N(C)C(=O)[C@@H]2CCCN2C(=O)[C@H](C)OC(=O)[C@H](CCC(N)=O)NC(=O)[C@@H]2CCC(=O)N2)[C@@H](C)OC(=O)[C@H](Cc2ccc(OC)cc2)N(C)C(=O)[C@@H]2CCCN2C(=O)[C@H](CC(C)C)NC(=O)[C@@H](C)C(=O)[C@H](C(C)C)OC(=O)C[C@@H]1O [Compound 38, Didemnin M] ([pGlu]Q[Lac]P[dNMeL]T[X1]LP[NMeY](Me); ester 6-C) | > 7410 | > 10 | 100 | 1.4 | 17.2 ± 1.2 | 1.27 | 4.1 | 100 | -0.2 | 17.8 ± 0.7 | 1.38 | 4.4 | 100 | 1.0 | 16.4 ± 1.0 | 1.54 | 4.9 | 0.25 | 0.001 | – | suppression of allogeneically induced splenomegaly response compared to control ([2]; 1.6 μg/kg per injection): 61%; toxicity to the animals ([2]; 16 and 160 μg/kg): not toxic |
| CC[C@H](C)[C@H]1NC(=O)[C@@H](NC(=O)[C@@H](CC(C)C)N(C)C(=O)[C@@H]2CCCN2C(=O)C(C)O)[C@@H](C)OC(=O)[C@H](Cc2ccc(OC)cc2)N(C)C(=O)[C@@H]2CCCN2C(=O)[C@H](CC(C)C)NC(=O)[C@@H](C)C(=O)[C@H](C(C)C)OC(=O)C[C@@H]1O (stereo partly drawn) [Compound 1, didemnin B] | 6340 | 7.00 | 100 | 1.0 | 18.4 ± 0.8 | 1.91 | 6.1 | 100 | 1.0 | 18.2 ± 0.7 | 1.33 | 4.2 | 100 | -1.4 | 15.6 ± 1.6 | 1.24 | 4.0 | 0.6 | 0.46 | 0.42 | suppression of allogeneically induced splenomegaly response compared to control ([2]; 1.6 μg/kg per injection): not effective; suppression of allogeneically induced splenomegaly response compared to control ([2]; 16 μg/kg per injection): 53%; suppression of allogeneically induced splenomegaly response compared to control ([2]; 160 μg/kg per injection): 66%; toxicity to the animals [2, 6]: neither was toxic; protected Rift Valley fever virus-infected mice [5]: 90% |
| CCCCCCCCCCCCCCCCCC(=O)N(C)[C@H](CC(C)C)C(=O)N[C@@H]1C(=O)N[C@H]([C@@H](C)CC)[C@@H](O)CC(=O)O[C@@H](C(C)C)C(=O)[C@H](C)C(=O)N[C@@H](CC(C)C)C(=O)N2CCC[C@H]2C(=O)N(C)[C@@H](Cc2ccc(OC)cc2)C(=O)O[C@@H]1C [Compound 25, N^α -Octadecanoyldidemnin A] (Stearoyl-[dNMeL]T[X1]LP[NMeY](Me); ester 2-C) | > 8500 | > 10 | – | – | – | – | – | – | – | – | – | – | – | – | – | – | – | 2700 | 6040 | 5110 | – |
| CC[C@H](C)[C@H]1NC(=O)[C@@H](NC(=O)[C@@H](CC(C)C)N(C)C(=O)[C@@H]2CCCN2C(=O)[C@H](C)O)[C@@H](C)OC(=O)[C@H](Cc2ccc(OC)cc2)N(C)C(=O)[C@@H]2CCCN2C(=O)[C@H](CC(C)C)NC(=O)[C@@H](C)C(=NO)[C@H](C(C)C)OC(=O)C[C@@H]1O [Compound 11, [Hip^3 oxime]Didemnin B] | > 8900 | > 10 | – | – | – | – | – | – | – | – | – | – | – | – | – | – | – | 1.7 | 0.96 | 0.85 | – |
| CC[C@H](C)[C@H]1NC(=O)[C@@H](NC(=O)[C@@H](CC(C)C)N(C)C(=O)[C@H]2CCCN2)[C@@H](C)OC(=O)[C@H](Cc2ccc(OC)cc2)N(C)C(=O)[C@@H]2CCCN2C(=O)[C@H](CC(C)C)NC(=O)[C@@H](C)C(=O)[C@H](C(C)C)OC(=O)C[C@@H]1O [Compound 29, N^α -(D-Pro)-Didemnin A] (H-[dP][dNMeL]T[X1]LP[NMeY](Me); ester 3-C) | > 9600 | > 10 | – | – | – | – | – | – | – | – | – | – | – | – | – | – | – | 22 | 12.2 | 11.7 | – |
